Patent US12263248B2, “Compounds and compositions for intracellular delivery of therapeutic agents” (ModernaTX, Inc., priority 2018, dated 2025)

Assays:
[1] = tested on: luciferase (Luc) mRNA; assay: Luc expression, whole body bioluminescence after intravenous administration to mice; assay type: in vivo; conditions: for Fold increase in total body Luc Flux relative to MC3 at 6 h: Table 3A; for Total Flux 3 hours / Total Flux 6 hours / Total Flux 24 hours: mice, i.v., 0.5 mg/kg, Luc mRNA
Experimental: In order to monitor how effectively various nanoparticle compositions deliver therapeutic and/or prophylactics to targeted cells, different nanoparticle compositions including a particular therapeutic and/or prophylactic (for example, a modified or naturally occurring RNA such as an mRNA) are prepared and administered to rodent populations. Mice are intravenously, intramuscularly, intraarterially, or intratumorally administered a single dose including a nanoparticle composition with a formulation such as those provided in Example 3. In some instances, mice may be made to inhale doses. Dose sizes may range from 0.001 mg/kg to 10 mg/kg, where 10 mg/kg describes a dose including 10 mg of a therapeutic and/or prophylactic in a nanoparticle composition for each 1 kg of body mass of the mouse. A control composition including PBS may also be employed.
Upon administration of nanoparticle compositions to mice, dose delivery profiles, dose responses, and toxicity of particular formulations and doses thereof can be measured by enzyme-linked immunosorbent assays (ELISA), bioluminescent imaging, or other methods. For nanoparticle compositions including mRNA, time courses of protein expression can also be evaluated. Samples collected from the rodents for evaluation may include blood, sera, and tissue (for example, muscle tissue from the site of an intramuscular injection and internal tissue); sample collection may involve sacrifice of the animals.
The efficacy of the nanoparticle compositions presented in Table 1A was evaluated with a bioluminescence study. Formulations were administered intravenously to mice (n=6) at a dosage of 0.5 mg/kg (mpk) and bioluminescence measured at 3, 6, and 24 hour time points. The standard MC3 formulation and, in some instances, a control (e.g., a PBS control) were evaluated for comparison. […] In general, flux decreased as time progressed to less than 10% of the initial flux.
(§1) Whole body and ex vivo organ bioluminescent imaging of mice: CD-1 mice were injected 15 minutes prior to the imaging timepoint intraperitoneally (IP) with 200 μL Xenolight D-luciferin K+ salt, diluted in PBS just prior to use to a concentration of 15 mg/mL. Ex vivo imaging of organs was completed within 25 minutes of luciferin administration. All images were quantified by region of interest for total flux.

[2] = tested on: luciferase (Luc) mRNA; assay: Luc expression in liver, lung, spleen and femur 6 hours after intravenous administration; assay type: in vivo; conditions: mice, intravenous, 0.5 mpk
Experimental: The efficacy of the nanoparticle compositions presented in Table 1A was further evaluated by measuring the expression of modified luciferase in the liver, lung, spleen, and femur upon administration of a given composition. Formulations were administered intravenously to mice (n=3) at a dosage of 0.5 mpk and bioluminescence measured after 6 hours. The standard MC3 formulation and a PBS control were also tested. […] Flux in the liver was lowest for compositions including Compounds 58, 59, 137, and 141. Flux in the spleen was highest for compositions including Compounds 4, 7, 33, 34, 48, 53, 108, 129, 130, and 148, and lowest for compositions including Compounds 9, 59, 124, and 141.
as §1

[3] = Encapsulation efficiency of RNA (QUANT-IT RIBOGREEN RNA assay); assay type: physicochemical; conditions: Table 1A
Experimental: For nanoparticle compositions including an RNA, a QUANT-IT™ RIBOGREEN® RNA assay (Invitrogen Corporation Carlsbad, CA) can be used to evaluate the encapsulation of an RNA by the nanoparticle composition. The samples are diluted to a concentration of approximately […] in a TE buffer solution (10 mM Tris-HCl, 1 mM EDTA, pH 7.5). 50 μL of the diluted samples are transferred to a polystyrene 96 well plate and either 50 μL of TE buffer or 50 μL of a 2% Triton X-100 solution is added to the wells. The plate is incubated at a temperature of 37° C. for 15 minutes. The RIBOGREEN® reagent is diluted 1:100 in TE buffer, and 100 μL of this solution is added to each well. The fluorescence intensity can be measured using a fluorescence plate reader (Wallac Victor 1420 Multilabel Counter; Perkin Elmer, Waltham, MA) at an excitation wavelength of, for example, about 480 nm and an emission wavelength of, for example, about 520 nm. The fluorescence values of the reagent blank are subtracted from that of each of the samples and the percentage of free RNA is determined by dividing the fluorescence intensity of the intact sample (without addition of Triton X-100) by the fluorescence value of the disrupted sample (caused by the addition of Triton X-100).

[4] = Apparent (surface) pKa of the LNP formulation (TNS assay); assay type: physicochemical; conditions: Table 1A
Experimental: Using sodium hydroxide (1 M) and hydrochloric acid (1 M), 21 unique buffers were prepared from the master buffer stock at pH values between about 3 and 12. Next, a stock of 300 μM 6-(p-Toluidino)-2-naphthalenesulfonic acid sodium salt (TNS reagent) in DMSO was prepared and the LNP was mixed with the desired formulation buffer at a concentration of 0.04 mg/mL mRNA. This assay has been validated in 1× PBS and 20 mM Tris w/8% sucrose buffer. The buffer solutions at various pH values were added to a 96-well plate in triplicate for each pH. To each well was added 3.26 μL of LNP sample at a mRNA concentration of 0.04 mg/mL and 2.0 μL of 300 μM TNS reagent solution. After careful mixing, the resulting fluorescence values were read for each plate to create a sigmoidal plot of the fluorescence values vs. buffer pH. The […] inflection point of this curve is the apparent pKa of the LNP formulation.

[5] = Particle size and polydispersity index of nanoparticle compositions (Zetasizer Nano ZS); assay type: physicochemical; conditions: Table 1A; for Size (nm): lipid:DSPC:cholesterol:PEG-DMG 50:10:38.5:1.5 mol %
Experimental: A Zetasizer Nano ZS (Malvern Instruments Ltd, Malvern, Worcestershire, UK) can be used to determine the particle size, the polydispersity index (PDI) and the zeta potential of the nanoparticle compositions in 1×PBS in determining particle size and 15 mM PBS in determining zeta potential.

| SMILES | Fold increase in total body Luc Flux relative to MC3 at 6 h ([1]; i.v. administration) | Total Flux 3 hours [1] | Total Flux 6 hours [1] | Total Flux 24 hours [1] | Total Flux Liver [2] | Total Flux Lung [2] | Total Flux Spleen [2] | EE (%) [3] [%] | pKa [4] | PDI [5] | Size (nm) [5] [nm] | 6 h Lipid/MC3 Avg. Luc Expression ([1]; Table 3C, i.v. administration) | Fold increase AUC Lipid/MC3 ([1]; Table 3C, i.v. administration) | AUC (h * p/s) ([1]; Table 3C, i.v. administration, Luc) | Lipid/MC3 AUC ([1]; Table 3D, intravenous) | AUC (p/s * h) ([1]; Table 3D, intravenous, Luc) |
| --- | --- | --- | --- | --- | --- | --- | --- | --- | --- | --- | --- | --- | --- | --- | --- | --- |
| CCCCCCCCC(CCCCCCCC)OC(=O)CCCCCCCN(CCO)CCCCCCCC(=O)OC(CCCCCCCC)C1CC1 (stereo not drawn) [Compound 65, 1-Cyclopropylnonyl 8-((8-(heptadecan-9-yloxy)-8-oxooctyl)(2-hydroxyethyl)amino)octanoate] | 3.16 | 6.56E+10 | 7.01E+10 | 7.50E+08 | 9.56E+09 | 3.79E+07 | 6.57E+07 | 98.2 | 6.36 | 0.12 | 63.9 |  |  |  |  |  |
| CCCCCCCCC(CCCCCCCC)OC(=O)CCCCCCCN(CCO)CCCCCC(=O)N(C)CCCCCCCC [Compound 146, Heptadecan-9-yl 8-((2-hydroxyethyl)(6-(methyl(octyl)amino)-6-oxohexyl)amino)octanoate] |  | 9.48E+07 | 8.39E+07 | 2.30E+06 | 7.24E+06 | 3.88E+06 | 5.11E+07 | 91.94 | 7.78 | 0.210 | 97.0 | 0.011 | 0.013 | 1.04E+09 |  |  |
| CCCCCCCCC(CCCCCCCC)OC(=O)CCCCCCCN(CCO)CCCC(=O)OC1CCC(CCCCC)CC1 (stereo not drawn) [Compound 67, Heptadecan-9-yl 8-((2-hydroxyethyl)(4-oxo-4-((4-pentylcyclohexyl)oxy)butyl)amino)octanoate] | 2.08 | 4.24E+10 | 4.62E+10 | 4.51E+08 | 3.60E+09 | 1.68E+07 | 2.55E+07 | 98 | 6.38 | 0.13 | 77 |  |  |  |  |  |
| CCCCCCCCC(CCCCCCCC)OC(=O)CCCCCCCN(CCO)CCCCCCCC(=O)OC(C)(C)C [Compound 155, tert-Butyl 8-((8-(heptadecan-9-yloxy)-8-oxooctyl)(2-hydroxyethyl)amino)octanoate] |  | 2.49E+09 | 1.15E+10 | 1.99E+08 | 8.58E+08 | 1.00E+07 | 2.77E+08 | 37.36 | 6.576 | 0.240 | 208.3 |  |  |  | 0.66 | 1.266E+011 |
| CCCCCCCCC(CCC)OC(=O)CCCN(CCO)CCCCCCCC(=O)OC(CCCCCCCC)CCCCCCCC (stereo not drawn) [Compound 74, Heptadecan-9-yl 8-((4-(dodecan-4-yloxy)-4-oxobutyl)(2-hydroxyethyl)amino)octanoate] | 1.005 | 3.27E+10 | 2.23E+10 | 2.75E+08 | 1.99E+09 | 6.93E+06 | 2.26E+07 | 97 | 6.08 | 0.15 | 65.6 |  |  |  |  |  |
| CCCCCCCCCOC(=O)CCCCCCCN(CCCCCCCC(=O)OC(CCCCCCCC)CCCCCCCC)CCCC(F)(F)F [Compound 107] |  |  |  |  |  |  |  | 0 | 4.802 | 0.74 | 55 |  |  |  |  |  |
| CCCCCCCCCOC(=O)CCCCCCCN(CCCCCCCC(=O)OC(CCCCCCCC)CCCCCCCC)CCCNC(=O)CO [Compound 198, Heptadecan-9-yl 8-((3-(2-hydroxyacetamido)propyl)(8-(nonyloxy)-8-oxooctyl)amino)octanoate] |  |  |  |  |  |  |  | 99.5 | 7.62 | 0.24 | 84.2 |  |  |  |  |  |
| CCCCCCCCCOC(=O)CCCCCCCN(CCCCCCCC(=O)OC(CCCCCCCC)CCCCCCCC)Cc1ccccc1 [Compound 94, Heptadecan-9-yl 8-(benzyl(8-(nonyloxy)-8-oxooctyl)amino)octanoate] |  |  |  |  |  |  |  | 0 | 4.43 | 0.24 | 62.4 |  |  |  |  |  |
| CCCCCCCCCOC(=O)CCCCCCCN(CCCCCCCC(=O)OC(CCCCCCCC)CCCCCCCC)CCCn1cnc2c(N)ncnc21 [Compound 116, Heptadecan-9-yl 8-((3-(6-amino-9H-purin-9-yl)propyl)(8-(nonyloxy)-8-oxooctyl)amino)octanoate] |  | 3.13E+07 | 3.86E+07 |  |  |  |  | 99.4 | 5.66 | 0.14 | 63.3 |  |  |  |  |  |
| CCCCCCCCCOC(=O)CCCCCCCN(CCCCCCCC(=O)OC(CCCCCCCC)CCCCCCCC)CCCn1ccnn1 [Compound 179, Heptadecan-9-yl 8-((3-(1H-1,2,3-triazol-1-yl)propyl)(8-(nonyloxy)-8-oxooctyl)amino)octanoate] |  |  |  |  |  |  |  | 94.7 | 6.16 | 0.11 | 71.6 |  |  |  |  |  |
| CCCCCCCCCOC(=O)CCCCCCCN(CCCCCCCC(=O)OC(CCCCCCCC)CCCCCCCC)CCCNC(=O)OC [Compound 181, Heptadecan-9-yl 8-((3-((methoxycarbonyl)amino)propyl)(8-(nonyloxy)-8-oxooctyl)amino)octanoate] |  |  |  |  |  |  |  | 88.9 | 6.17 | 0.12 | 78.7 |  |  |  |  |  |
| CCCCCCCCCOC(=O)CCCCCCCN(CCO)CCCCCCCC(=O)Oc1ccc(CCCCC)cc1 [Compound 119, Nonyl 8-((2-hydroxyethyl)(8-oxo-8-(4-pentylphenoxy)octyl)amino)octanoate] |  | 1.02E+07 | 3.74E+07 |  |  |  |  | 98.1 | 5.29 | 0.24 | 60.8 |  |  |  |  |  |
